Measured values: ChEMBL document CHEMBL5649166, “RIP3 induces apoptosis independent of pronecrotic kinase activity” (Mol Cell, 2014)

Columns and labels:
[1] = molecular target: T1, Tyrosine-protein kinase Mer (Homo sapiens) (UniProt Q12866); assay: Inhibition of human c-MER using poly[Glu:Tyr] (4:1) as substrate at 1 uM in presence of 32P-ATP by Hotspot assay relative to control; values are per cent of control
T1 sequence (whole entry): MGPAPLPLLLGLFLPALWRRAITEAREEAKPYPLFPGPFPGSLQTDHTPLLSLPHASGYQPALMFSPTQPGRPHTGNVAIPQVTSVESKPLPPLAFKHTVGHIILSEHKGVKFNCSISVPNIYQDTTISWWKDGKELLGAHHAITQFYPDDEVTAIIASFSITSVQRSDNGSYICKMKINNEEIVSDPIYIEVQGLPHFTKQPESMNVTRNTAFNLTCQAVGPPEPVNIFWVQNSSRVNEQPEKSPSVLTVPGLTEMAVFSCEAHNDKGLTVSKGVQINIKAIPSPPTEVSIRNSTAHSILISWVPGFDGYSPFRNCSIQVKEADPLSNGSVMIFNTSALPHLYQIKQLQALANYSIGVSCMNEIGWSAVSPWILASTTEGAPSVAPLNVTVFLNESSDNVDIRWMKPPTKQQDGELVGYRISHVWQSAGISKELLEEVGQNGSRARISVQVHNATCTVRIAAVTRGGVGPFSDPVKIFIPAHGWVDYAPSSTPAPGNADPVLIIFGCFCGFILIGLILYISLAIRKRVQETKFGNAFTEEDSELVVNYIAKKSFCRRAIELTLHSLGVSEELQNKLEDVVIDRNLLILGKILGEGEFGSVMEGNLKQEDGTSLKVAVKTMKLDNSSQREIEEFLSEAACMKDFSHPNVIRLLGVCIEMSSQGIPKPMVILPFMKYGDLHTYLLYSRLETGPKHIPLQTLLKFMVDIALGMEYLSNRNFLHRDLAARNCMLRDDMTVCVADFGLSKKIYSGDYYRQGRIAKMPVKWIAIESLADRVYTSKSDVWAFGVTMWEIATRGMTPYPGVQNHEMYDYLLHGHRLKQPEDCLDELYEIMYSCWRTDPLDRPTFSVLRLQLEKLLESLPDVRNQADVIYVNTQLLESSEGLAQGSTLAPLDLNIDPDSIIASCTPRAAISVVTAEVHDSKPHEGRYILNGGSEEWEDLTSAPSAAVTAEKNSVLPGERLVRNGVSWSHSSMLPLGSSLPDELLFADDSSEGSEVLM

[2] = molecular target: Ribosomal protein S6 kinase beta-1 (Homo sapiens) (UniProt P23443); assay: Inhibition of human p70S6K/RPS6KB1 using KKRNRTLTK as substrate at 1 uM in presence of 32P-ATP by Hotspot assay relative to control; values are per cent of control
Chain of Ribosomal protein S6 kinase beta-1 (Homo sapiens) (P23443 whole entry, looked up): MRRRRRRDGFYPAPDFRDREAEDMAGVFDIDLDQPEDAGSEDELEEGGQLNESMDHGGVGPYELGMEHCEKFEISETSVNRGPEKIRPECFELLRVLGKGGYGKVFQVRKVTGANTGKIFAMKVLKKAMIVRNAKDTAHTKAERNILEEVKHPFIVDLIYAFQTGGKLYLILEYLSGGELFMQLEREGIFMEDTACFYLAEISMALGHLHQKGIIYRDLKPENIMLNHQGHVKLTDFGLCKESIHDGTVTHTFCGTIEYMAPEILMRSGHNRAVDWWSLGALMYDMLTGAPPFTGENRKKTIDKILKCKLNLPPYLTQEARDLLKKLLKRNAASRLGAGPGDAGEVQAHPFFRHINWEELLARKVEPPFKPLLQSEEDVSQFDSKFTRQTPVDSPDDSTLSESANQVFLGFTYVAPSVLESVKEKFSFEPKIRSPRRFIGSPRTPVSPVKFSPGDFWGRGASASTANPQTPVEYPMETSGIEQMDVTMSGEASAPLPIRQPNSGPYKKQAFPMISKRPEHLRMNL

[3] = molecular target: MAP kinase-activated protein kinase 3 (Homo sapiens) (UniProt Q16644); assay: Inhibition of human MAPKAPK3 using KKLNRTLSVA as substrate at 1 uM in presence of 32P-ATP by Hotspot assay relative to control; values are per cent of control
Chain of MAP kinase-activated protein kinase 3 (Homo sapiens) (Q16644 whole entry, looked up, canonical isoform): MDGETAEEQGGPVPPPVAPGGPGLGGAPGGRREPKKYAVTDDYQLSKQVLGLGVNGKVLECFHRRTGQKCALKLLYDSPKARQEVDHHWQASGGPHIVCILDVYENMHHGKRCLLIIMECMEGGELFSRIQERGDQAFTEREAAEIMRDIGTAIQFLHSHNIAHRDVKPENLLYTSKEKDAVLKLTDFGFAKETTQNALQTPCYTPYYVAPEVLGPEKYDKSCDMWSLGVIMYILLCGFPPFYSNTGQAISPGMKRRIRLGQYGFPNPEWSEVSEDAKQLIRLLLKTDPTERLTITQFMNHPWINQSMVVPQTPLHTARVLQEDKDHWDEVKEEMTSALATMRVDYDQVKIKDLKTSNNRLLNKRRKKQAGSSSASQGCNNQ

[4] = molecular target: Casein kinase I isoform delta (Homo sapiens) (UniProt P48730); assay: Inhibition of human CK1d using KRRRAL[pS]VASLPGL as substrate at 1 uM in presence of 32P-ATP by Hotspot assay relative to control; values are per cent of control
Chain of Casein kinase I isoform delta (Homo sapiens) (P48730 whole entry, looked up, canonical isoform): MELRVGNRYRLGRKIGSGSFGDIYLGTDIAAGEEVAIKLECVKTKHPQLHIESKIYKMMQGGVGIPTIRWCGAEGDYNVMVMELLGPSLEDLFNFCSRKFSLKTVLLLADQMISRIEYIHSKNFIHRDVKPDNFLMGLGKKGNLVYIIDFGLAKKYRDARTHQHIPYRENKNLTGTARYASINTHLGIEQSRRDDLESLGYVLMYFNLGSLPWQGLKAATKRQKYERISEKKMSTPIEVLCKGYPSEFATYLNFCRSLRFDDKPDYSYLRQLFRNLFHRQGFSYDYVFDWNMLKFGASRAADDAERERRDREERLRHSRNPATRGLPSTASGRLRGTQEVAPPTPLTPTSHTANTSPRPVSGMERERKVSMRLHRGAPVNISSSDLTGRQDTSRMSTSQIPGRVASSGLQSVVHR

[5] = molecular target: Calcium/calmodulin-dependent protein kinase type II subunit alpha (Homo sapiens) (UniProt Q9UQM7); assay: Inhibition of human CAMK2a using KKALRRQETVDAL as substrate at 1 uM in presence of 32P-ATP by Hotspot assay relative to control; values are per cent of control
Chain of Calcium/calmodulin-dependent protein kinase type II subunit alpha (Homo sapiens) (Q9UQM7 whole entry): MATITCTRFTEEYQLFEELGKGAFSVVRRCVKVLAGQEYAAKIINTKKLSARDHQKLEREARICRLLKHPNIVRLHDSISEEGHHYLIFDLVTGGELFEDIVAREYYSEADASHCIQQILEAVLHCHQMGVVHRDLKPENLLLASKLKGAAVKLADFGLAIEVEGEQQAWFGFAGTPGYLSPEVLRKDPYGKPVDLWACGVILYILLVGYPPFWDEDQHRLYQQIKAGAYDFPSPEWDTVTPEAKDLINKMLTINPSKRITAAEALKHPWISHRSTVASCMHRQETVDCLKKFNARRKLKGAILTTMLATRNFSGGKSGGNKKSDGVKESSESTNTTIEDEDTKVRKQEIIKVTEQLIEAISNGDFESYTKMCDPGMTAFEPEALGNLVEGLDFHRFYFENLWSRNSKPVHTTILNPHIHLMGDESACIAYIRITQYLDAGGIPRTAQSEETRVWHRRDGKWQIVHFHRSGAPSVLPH

[6] = molecular target: Vascular endothelial growth factor receptor 3 (Homo sapiens) (UniProt P35916); assay: Inhibition of human FLT4/VEGFR3 using poly[Glu:Tyr] (4:1) as substrate at 1 uM in presence of 32P-ATP by Hotspot assay relative to control; values are per cent of control
Chain of Vascular endothelial growth factor receptor 3 (Homo sapiens) (P35916 whole entry): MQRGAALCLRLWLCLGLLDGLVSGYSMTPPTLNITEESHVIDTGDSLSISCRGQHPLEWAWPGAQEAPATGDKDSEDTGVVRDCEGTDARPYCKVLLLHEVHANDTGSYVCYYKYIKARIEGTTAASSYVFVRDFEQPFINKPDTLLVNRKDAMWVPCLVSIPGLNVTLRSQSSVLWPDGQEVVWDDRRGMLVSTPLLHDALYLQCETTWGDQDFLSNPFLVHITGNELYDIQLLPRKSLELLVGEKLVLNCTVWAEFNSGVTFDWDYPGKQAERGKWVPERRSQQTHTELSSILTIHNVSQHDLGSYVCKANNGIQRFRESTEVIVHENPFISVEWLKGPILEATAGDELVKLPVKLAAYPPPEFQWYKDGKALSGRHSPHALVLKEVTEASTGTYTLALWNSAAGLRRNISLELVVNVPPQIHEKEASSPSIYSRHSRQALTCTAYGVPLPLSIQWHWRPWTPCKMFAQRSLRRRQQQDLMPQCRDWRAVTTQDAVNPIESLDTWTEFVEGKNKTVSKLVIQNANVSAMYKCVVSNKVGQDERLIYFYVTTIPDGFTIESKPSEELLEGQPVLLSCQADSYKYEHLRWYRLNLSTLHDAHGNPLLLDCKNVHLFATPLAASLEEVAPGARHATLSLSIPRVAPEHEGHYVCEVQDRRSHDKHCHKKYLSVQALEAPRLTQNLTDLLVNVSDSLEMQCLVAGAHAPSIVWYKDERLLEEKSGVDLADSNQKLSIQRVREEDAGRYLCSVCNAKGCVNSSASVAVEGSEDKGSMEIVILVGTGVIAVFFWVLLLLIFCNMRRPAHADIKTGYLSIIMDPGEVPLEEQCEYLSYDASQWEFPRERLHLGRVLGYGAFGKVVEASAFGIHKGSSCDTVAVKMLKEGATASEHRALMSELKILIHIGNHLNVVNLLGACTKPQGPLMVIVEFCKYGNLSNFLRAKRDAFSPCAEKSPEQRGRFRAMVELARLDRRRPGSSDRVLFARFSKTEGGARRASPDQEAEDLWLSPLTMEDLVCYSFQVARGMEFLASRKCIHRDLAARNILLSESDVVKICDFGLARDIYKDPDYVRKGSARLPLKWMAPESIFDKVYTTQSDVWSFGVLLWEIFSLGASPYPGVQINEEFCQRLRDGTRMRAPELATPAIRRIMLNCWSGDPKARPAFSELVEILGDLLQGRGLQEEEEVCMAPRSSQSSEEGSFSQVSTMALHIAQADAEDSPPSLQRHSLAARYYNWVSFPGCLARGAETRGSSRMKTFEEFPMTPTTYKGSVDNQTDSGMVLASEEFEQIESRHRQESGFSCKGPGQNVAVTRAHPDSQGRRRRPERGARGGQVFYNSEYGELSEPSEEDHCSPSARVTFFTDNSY

[7] = molecular target: Cyclin-dependent kinase 4/cyclin D1 (Homo sapiens) (UniProt P11802+P24385); assay: Inhibition of human CDK4/cyclin D1 using RB Protein as substrate at 1 uM in presence of 32P-ATP by Hotspot assay relative to control; values are per cent of control
[8] = molecular target: T2, Dual specificity tyrosine-phosphorylation-regulated kinase 4 (Homo sapiens) (UniProt Q9NR20); assay: Inhibition of human DYRK4 using RRRFRPASPLRGPPK as substrate at 1 uM in presence of 32P-ATP by Hotspot assay relative to control; values are per cent of control
T2 sequence (whole entry): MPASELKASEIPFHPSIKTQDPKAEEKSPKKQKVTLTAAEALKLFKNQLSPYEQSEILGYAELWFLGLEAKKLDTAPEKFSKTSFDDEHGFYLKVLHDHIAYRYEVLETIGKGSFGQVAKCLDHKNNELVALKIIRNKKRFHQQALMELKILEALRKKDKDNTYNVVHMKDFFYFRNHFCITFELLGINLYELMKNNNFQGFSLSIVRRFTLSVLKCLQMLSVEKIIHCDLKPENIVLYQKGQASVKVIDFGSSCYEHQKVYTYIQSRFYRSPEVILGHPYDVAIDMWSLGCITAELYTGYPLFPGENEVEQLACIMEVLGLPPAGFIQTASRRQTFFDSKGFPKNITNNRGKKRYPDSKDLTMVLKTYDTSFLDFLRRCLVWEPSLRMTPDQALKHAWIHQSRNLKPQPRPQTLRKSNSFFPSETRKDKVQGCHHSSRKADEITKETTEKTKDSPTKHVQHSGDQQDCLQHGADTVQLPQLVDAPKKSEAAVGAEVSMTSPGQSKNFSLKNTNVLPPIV

[9] = molecular target: Dual specificity protein kinase CLK2 (Homo sapiens) (UniProt P49760); assay: Inhibition of human CLK2 using myelin basic protein as substrate at 1 uM in presence of 32P-ATP by Hotspot assay relative to control; values are per cent of control
Chain of Dual specificity protein kinase CLK2 (Homo sapiens) (P49760 whole entry, looked up): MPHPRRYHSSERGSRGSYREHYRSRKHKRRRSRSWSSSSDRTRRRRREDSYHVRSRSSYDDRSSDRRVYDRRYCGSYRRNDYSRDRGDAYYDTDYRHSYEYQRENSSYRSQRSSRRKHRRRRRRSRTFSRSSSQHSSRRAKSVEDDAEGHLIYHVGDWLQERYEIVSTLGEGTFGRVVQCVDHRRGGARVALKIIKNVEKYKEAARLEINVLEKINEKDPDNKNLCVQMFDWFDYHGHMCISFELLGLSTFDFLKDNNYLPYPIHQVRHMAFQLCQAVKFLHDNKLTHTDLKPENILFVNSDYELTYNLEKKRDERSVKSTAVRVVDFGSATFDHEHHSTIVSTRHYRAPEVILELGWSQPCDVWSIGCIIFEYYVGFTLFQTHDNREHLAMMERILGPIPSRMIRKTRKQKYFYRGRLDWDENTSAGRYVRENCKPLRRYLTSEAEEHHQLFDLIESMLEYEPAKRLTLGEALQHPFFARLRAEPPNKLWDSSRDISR

| SMILES | residual activity [1] [%] | residual activity [2] [%] | residual activity [3] [%] | residual activity [4] [%] | residual activity [5] [%] | residual activity [6] [%] | residual activity [7] [%] | residual activity [8] [%] | residual activity [9] [%] |
| --- | --- | --- | --- | --- | --- | --- | --- | --- | --- |
| CC(C)S(=O)(=O)c1ccc2nccc(Nc3ccc4scnc4c3)c2c1 | 93.8 | 108 | 98.9 | 104 | 100 | 83.1 | 95.2 | 102 | 97.1 |
| Cc1cc(-c2cnc(N)c3c(-c4ccc5scnc5c4)csc23)n(C)n1 | 89.1 | 93.6 | 90.7 | 84.6 | 104 | 103 | 105 | 98.2 | 101 |
| CNC(=O)c1ccc2c(c1)ncn2-c1ccc(CC(=O)OC(C)(C)C)cc1 | 102 | 99.1 | 98 | 101 | 94.7 | 78.8 | 96.8 | 99.6 | 93.7 |
